# From PMC5218480 (PLoS ONE, 2017)
# Test system: MV-4-11 cells
# Assay: Gene expression microarray analysis (Affymetrix PrimeView) and GSEA
# Assay type: cell-based, human
# Design: RFU PODN (11730768_x_at) / Fold change /veh PODN (11730768_x_at) / RFU LINC00158 (11744669_a_at) / Fold change /veh LINC00158 (11744669_a_at) / RFU DUSP10 (11751237_a_at) / Fold change /veh DUSP10 (11751237_a_at) / RFU ID3 (11757404_x_at) / Fold change /veh ID3 (11757404_x_at) / RFU PLEKHG5 (11737974_s_at) / Fold change /veh PLEKHG5 (11737974_s_at) / RFU LRRC4B (11730491_at) / Fold change /veh LRRC4B (11730491_at) / RFU GIMAP4 (11747438_a_at) / Fold change /veh GIMAP4 (11747438_a_at) / RFU KRT8 (11758183_x_at) / Fold change /veh KRT8 (11758183_x_at) / RFU CNN1 (11734310_a_at) / Fold change /veh CNN1 (11734310_a_at) / RFU VPS37D (11726825_at) / Fold change /veh VPS37D (11726825_at) / RFU C10orf10 (11716522_x_at) / Fold change /veh C10orf10 (11716522_x_at) / RFU KIR2DL2 /// KIR2DL4 /// KIR2DL5A /// KIR2DL5B /// KIR2DS1 /// KIR2DS2 /// KIR2DS3 /// KIR2DS4 /// KIR3DL3 /// KIR3DL3 /// KIR3DS1 (11738374_at) / Fold change /veh KIR2DL2 /// KIR2DL4 /// KIR2DL5A /// KIR2DL5B /// KIR2DS1 /// KIR2DS2 /// KIR2DS3 /// KIR2DS4 /// KIR3DL3 /// KIR3DL3 /// KIR3DS1 (11738374_at) / RFU C1QL1 (11718748_at) / Fold change /veh C1QL1 (11718748_at) / RFU TMPRSS4 (11747572_a_at) / Fold change /veh TMPRSS4 (11747572_a_at) / RFU HAMP (11756126_x_at) / Fold change /veh HAMP (11756126_x_at) / RFU RNFT2 (11725882_a_at) / Fold change /veh RNFT2 (11725882_a_at) / RFU NR4A2 (11747474_a_at) / Fold change /veh NR4A2 (11747474_a_at) / RFU ABCC12 (11746883_a_at) / Fold change /veh ABCC12 (11746883_a_at) / RFU TMEM136 (11760407_x_at) / Fold change /veh TMEM136 (11760407_x_at) / RFU CLDN22 /// WWC2 (11732394_at) / Fold change /veh CLDN22 /// WWC2 (11732394_at) / RFU HLA-DPB1 (11760878_x_at) / Fold change /veh HLA-DPB1 (11760878_x_at) / RFU SPINT1 (11716480_a_at) / Fold change /veh SPINT1 (11716480_a_at) / RFU GAP43 (11754022_s_at) / Fold change /veh GAP43 (11754022_s_at) / RFU A4GNT (11735810_at) / Fold change /veh A4GNT (11735810_at) / RFU PRB3 (11715151_x_at) / Fold change /veh PRB3 (11715151_x_at) / RFU TUBB4B (11761932_at) / Fold change /veh TUBB4B (11761932_at) / RFU CAPN14 (11732068_a_at) / Fold change /veh CAPN14 (11732068_a_at) / RFU TMCC2 (11721928_a_at) / Fold change /veh TMCC2 (11721928_a_at) / RFU IRGQ (11745062_a_at) / Fold change /veh IRGQ (11745062_a_at) / RFU FAM174B (11720279_a_at) / Fold change /veh FAM174B (11720279_a_at) / RFU TMPRSS4 (11748680_a_at) / Fold change /veh TMPRSS4 (11748680_a_at) / RFU FAM212B (11763350_a_at) / Fold change /veh FAM212B (11763350_a_at) / RFU PLEKHG5 (11743358_a_at) / Fold change /veh PLEKHG5 (11743358_a_at) / RFU ZSCAN30 (11745921_a_at) / Fold change /veh ZSCAN30 (11745921_a_at) / RFU CMKLR1 (11741424_a_at) / Fold change /veh CMKLR1 (11741424_a_at) / RFU LOC101060620 /// MAPK8IP1 (11723275_at) / Fold change /veh LOC101060620 /// MAPK8IP1 (11723275_at) / RFU SPTSSB (11747773_x_at) / Fold change /veh SPTSSB (11747773_x_at) / RFU PRSS12 (11739890_at) / Fold change /veh PRSS12 (11739890_at) / RFU BIN1 (11741810_x_at) / Fold change /veh BIN1 (11741810_x_at) / RFU WNT11 (11732464_a_at) / Fold change /veh WNT11 (11732464_a_at) / RFU C10orf10 (11716521_a_at) / Fold change /veh C10orf10 (11716521_a_at) / RFU C5orf56 (11738089_at) / Fold change /veh C5orf56 (11738089_at) / RFU CYB561 (11721691_x_at) / Fold change /veh CYB561 (11721691_x_at) / RFU ANKRD19P (11752326_a_at) / Fold change /veh ANKRD19P (11752326_a_at) / RFU OR2T12 /// OR2T33 /// OR2T8 (11738714_s_at) / Fold change /veh OR2T12 /// OR2T33 /// OR2T8 (11738714_s_at) / RFU VCAN (11748164_a_at) / Fold change /veh VCAN (11748164_a_at) / RFU JSRP1 (11732532_at) / Fold change /veh JSRP1 (11732532_at) / RFU KRTAP10-11 (11738290_x_at) / Fold change /veh KRTAP10-11 (11738290_x_at) / RFU MYO3A (11730013_a_at) / Fold change /veh MYO3A (11730013_a_at) / RFU EBF3 (11725865_a_at) / Fold change /veh EBF3 (11725865_a_at) / RFU CAMK2N1 (11719241_x_at) / Fold change /veh CAMK2N1 (11719241_x_at) / RFU C5orf56 (11738088_a_at) / Fold change /veh C5orf56 (11738088_a_at) / RFU OLFML3 (11715873_a_at) / Fold change /veh OLFML3 (11715873_a_at) / RFU LOC100653217 /// NTM (11731650_a_at) / Fold change /veh LOC100653217 /// NTM (11731650_a_at) / RFU MAPK11 (11762145_a_at) / Fold change /veh MAPK11 (11762145_a_at) / RFU FIZ1 (11724087_x_at) / Fold change /veh FIZ1 (11724087_x_at) / RFU OASL (11726364_x_at) / Fold change /veh OASL (11726364_x_at) / RFU SOX15 (11748057_x_at) / Fold change /veh SOX15 (11748057_x_at) / RFU CD79A (11719716_a_at) / Fold change /veh CD79A (11719716_a_at) / RFU HIST1H1D (11736915_at) / Fold change /veh HIST1H1D (11736915_at) / RFU CASKIN2 (11723855_a_at) / Fold change /veh CASKIN2 (11723855_a_at) / RFU LOC730098 (11760151_x_at) / Fold change /veh LOC730098 (11760151_x_at) / RFU OR4N2 (11742367_at) / Fold change /veh OR4N2 (11742367_at) / RFU PRRT2 (11749266_a_at) / Fold change /veh PRRT2 (11749266_a_at) / RFU SNX32 (11753110_a_at) / Fold change /veh SNX32 (11753110_a_at) / RFU CDHR5 (11726645_a_at) / Fold change /veh CDHR5 (11726645_a_at) / RFU RCAN1 (11760418_a_at) / Fold change /veh RCAN1 (11760418_a_at) / RFU FAM167A (11723789_a_at) / Fold change /veh FAM167A (11723789_a_at) / RFU FAM26E (11764081_at) / Fold change /veh FAM26E (11764081_at) / RFU ISYNA1 (11749810_s_at) / Fold change /veh ISYNA1 (11749810_s_at) / RFU ACY1 (11761880_at) / Fold change /veh ACY1 (11761880_at) / RFU 11764098_at / Fold change /veh 11764098_at / RFU SAMD14 (11745864_x_at) / Fold change /veh SAMD14 (11745864_x_at) / RFU NPB (11741838_a_at) / Fold change /veh NPB (11741838_a_at) / RFU TMPRSS6 (11731388_a_at) / Fold change /veh TMPRSS6 (11731388_a_at) / RFU KRTAP10-2 (11738614_at) / Fold change /veh KRTAP10-2 (11738614_at) / RFU ARHGAP8 /// PRR5-ARHGAP8 (11727945_x_at) / Fold change /veh ARHGAP8 /// PRR5-ARHGAP8 (11727945_x_at) / RFU KRTAP5-7 /// NADSYN1 (11734609_at) / Fold change /veh KRTAP5-7 /// NADSYN1 (11734609_at) / RFU RASL12 (11751679_a_at) / Fold change /veh RASL12 (11751679_a_at) / RFU CDKN2B (11736163_a_at) / Fold change /veh CDKN2B (11736163_a_at) / RFU PRF1 (11729649_at) / Fold change /veh PRF1 (11729649_at) / RFU, ZNF638 /// ZNF638-IT1 / Fold change vs veh, ZNF638 /// ZNF638-IT1 / RFU, PANK3 / Fold change vs veh, PANK3 / RFU, SH3YL1 / Fold change vs veh, SH3YL1 / RFU, ZEB2 / Fold change vs veh, ZEB2 / RFU, NRIP1 / Fold change vs veh, NRIP1 / RFU, PTTG1IP / Fold change vs veh, PTTG1IP / RFU, CAPN2 / Fold change vs veh, CAPN2 / RFU, MED14 / Fold change vs veh, MED14 / RFU, SNORA58 / Fold change vs veh, SNORA58 / RFU, C1orf63 / Fold change vs veh, C1orf63 / RFU, LRRFIP1 / Fold change vs veh, LRRFIP1 / RFU, NDUFAF7 / Fold change vs veh, NDUFAF7 / RFU, SLC12A2 / Fold change vs veh, SLC12A2 / RFU, IBTK / Fold change vs veh, IBTK / RFU, ESF1 / Fold change vs veh, ESF1 / Fold change vs veh, TMEM50B / RFU, TAOK1 / Fold change vs veh, TAOK1 / RFU, ACBD3 / Fold change vs veh, ACBD3 / RFU, TMA16 / Fold change vs veh, TMA16 / RFU, RWDD3 / Fold change vs veh, RWDD3 / RFU, BCAT1 / Fold change vs veh, BCAT1 / RFU, EDEM3 / Fold change vs veh, EDEM3 / RFU, TMEM33 / Fold change vs veh, TMEM33 / RFU, WDR75 / Fold change vs veh, WDR75 / RFU, AHCTF1 / Fold change vs veh, AHCTF1 / RFU, TFRC / Fold change vs veh, TFRC / RFU, ZDHHC17 / Fold change vs veh, ZDHHC17 / RFU, NOM1 / Fold change vs veh, NOM1 / RFU, ARL8B / Fold change vs veh, ARL8B / RFU, ZBTB11 / Fold change vs veh, ZBTB11 / RFU, TAMM41 / Fold change vs veh, TAMM41 / RFU, KIAA1704 /// LOC100996395 / Fold change vs veh, KIAA1704 /// LOC100996395 / RFU, ING1 / Fold change vs veh, ING1 / RFU, TRMT61B / Fold change vs veh, TRMT61B / RFU, FUBP3 / Fold change vs veh, FUBP3 / RFU, TP53 / Fold change vs veh, TP53 / RFU, TNKS2 / Fold change vs veh, TNKS2 / RFU, ZFP14 / Fold change vs veh, ZFP14 / RFU, ACTR2 / Fold change vs veh, ACTR2 / RFU, PPP3R1 / Fold change vs veh, PPP3R1 / RFU, PIK3R1 / Fold change vs veh, PIK3R1 / RFU, HNRNPA1 / Fold change vs veh, HNRNPA1 / RFU, RNF170 / Fold change vs veh, RNF170 / RFU, ZNF28 / Fold change vs veh, ZNF28 / RFU, RNGTT / Fold change vs veh, RNGTT / RFU, OGT / Fold change vs veh, OGT / RFU, BRD1 / Fold change vs veh, BRD1 / RFU, MARS / Fold change vs veh, MARS / RFU, ZNF655 / Fold change vs veh, ZNF655 / RFU, FAHD1 / Fold change vs veh, FAHD1 / RFU, BDP1 / Fold change vs veh, BDP1 / RFU, LRRCC1 / Fold change vs veh, LRRCC1 / RFU, ARID1A / Fold change vs veh, ARID1A / RFU, ZNF146 / Fold change vs veh, ZNF146 / RFU, ZNF330 / Fold change vs veh, ZNF330 / RFU, GPN3 / Fold change vs veh, GPN3 / RFU, C9orf123 / Fold change vs veh, C9orf123 / RFU, N4BP2L2 / Fold change vs veh, N4BP2L2 / RFU, ARFIP1 / Fold change vs veh, ARFIP1 / RFU, FAM179B / Fold change vs veh, FAM179B / RFU, BCL10 / Fold change vs veh, BCL10 / RFU, UHRF1BP1L / Fold change vs veh, UHRF1BP1L / RFU, BET1 / Fold change vs veh, BET1 / RFU, CNOT2 / Fold change vs veh, CNOT2 / RFU, ZNF268 / Fold change vs veh, ZNF268 / Fold change vs veh, ZNF507 / RFU, DGCR2 / Fold change vs veh, DGCR2 / RFU, WDSUB1 / Fold change vs veh, WDSUB1 / Fold change vs veh, HSP90B1 /// MIR3652 / RFU, ADSS / Fold change vs veh, ADSS / RFU, GK / Fold change vs veh, GK / RFU, ZNF148 / Fold change vs veh, ZNF148 / RFU, TAF9 / Fold change vs veh, TAF9 / RFU, SLC1A5 / Fold change vs veh, SLC1A5 / RFU, SLMO2 / Fold change vs veh, SLMO2 / RFU, ABCC4 / Fold change vs veh, ABCC4 / RFU, LOC101060439 /// RAP1B / Fold change vs veh, LOC101060439 /// RAP1B / RFU, RFX7 / Fold change vs veh, RFX7 / RFU, GTPBP10 / Fold change vs veh, GTPBP10 / RFU, CNEP1R1 / Fold change vs veh, CNEP1R1 / RFU, BIVM-ERCC5 /// ERCC5 / Fold change vs veh, BIVM-ERCC5 /// ERCC5 / RFU, ILF3 / Fold change vs veh, ILF3 / RFU 11762660_at / Fold change /veh 11762660_at / RFU VCAN (11757783_s_at) / Fold change /veh VCAN (11757783_s_at) / RFU DDX43 (11728927_at) / Fold change /veh DDX43 (11728927_at) / RFU KRT8 (11758188_x_at) / Fold change /veh KRT8 (11758188_x_at) / RFU NKD1 (11759106_at) / Fold change /veh NKD1 (11759106_at) / RFU SRD5A1 (11742802_a_at) / Fold change /veh SRD5A1 (11742802_a_at) / RFU TPSAB1 /// TPSB2 (11721975_s_at) / Fold change /veh TPSAB1 /// TPSB2 (11721975_s_at) / RFU GSTM3 (11746129_a_at) / Fold change /veh GSTM3 (11746129_a_at) / RFU IL23R (11737362_x_at) / Fold change /veh IL23R (11737362_x_at) / RFU TMEM51 (11727254_a_at) / Fold change /veh TMEM51 (11727254_a_at) / RFU PIWIL2 (11732686_x_at) / Fold change /veh PIWIL2 (11732686_x_at) / RFU ORM1 (11744905_x_at) / Fold change /veh ORM1 (11744905_x_at) / RFU CCDC152 (11743942_at) / Fold change /veh CCDC152 (11743942_at) / RFU ECM1 (11717891_a_at) / Fold change /veh ECM1 (11717891_a_at) / RFU IL23R (11748794_a_at) / Fold change /veh IL23R (11748794_a_at) / RFU TNFAIP8L3 (11732012_x_at) / Fold change /veh TNFAIP8L3 (11732012_x_at) / RFU MBOAT4 (11741988_at) / Fold change /veh MBOAT4 (11741988_at) / RFU 11764193_at / Fold change /veh 11764193_at / RFU TMEM53 (11763286_at) / Fold change /veh TMEM53 (11763286_at) / RFU MAGEB2 (11727129_at) / Fold change /veh MAGEB2 (11727129_at) / RFU TMEM200A (11744735_a_at) / Fold change /veh TMEM200A (11744735_a_at) / RFU CCDC152 (11751479_a_at) / Fold change /veh CCDC152 (11751479_a_at) / RFU FAM211A (11726209_a_at) / Fold change /veh FAM211A (11726209_a_at) / RFU RGS16 (11746705_a_at) / Fold change /veh RGS16 (11746705_a_at) / RFU VCAN (11755009_s_at) / Fold change /veh VCAN (11755009_s_at) / RFU RHOB (11743442_s_at) / Fold change /veh RHOB (11743442_s_at) / RFU RGS16 (11720943_a_at) / Fold change /veh RGS16 (11720943_a_at) / RFU RGS16 (11720944_at) / Fold change /veh RGS16 (11720944_at) / RFU, VPS4B / Fold change vs veh, VPS4B / RFU, CREB1 / Fold change vs veh, CREB1 / RFU, DNAJC13 / Fold change vs veh, DNAJC13 / RFU, GNAQ / Fold change vs veh, GNAQ / RFU, CDK5R1 / Fold change vs veh, CDK5R1 / RFU, ZRANB3 / Fold change vs veh, ZRANB3 / RFU, CUL4A / Fold change vs veh, CUL4A / RFU, CCNY / Fold change vs veh, CCNY / RFU, UFL1 / Fold change vs veh, UFL1 / RFU, COG3 / Fold change vs veh, COG3 / RFU, DIAPH2 / Fold change vs veh, DIAPH2 / RFU, SKA2 / Fold change vs veh, SKA2 / RFU, AFF3 / Fold change vs veh, AFF3 / RFU, LMF1 / Fold change vs veh, LMF1 / RFU, IPO11 / Fold change vs veh, IPO11 / RFU, DFFB / Fold change vs veh, DFFB / RFU, FOXP1 / Fold change vs veh, FOXP1 / RFU, CARD8 / Fold change vs veh, CARD8 / RFU, STRN3 / Fold change vs veh, STRN3 / RFU, ADK / Fold change vs veh, ADK / RFU, RASSF2 / Fold change vs veh, RASSF2 / RFU, WIPF1 / Fold change vs veh, WIPF1 / RFU, LARP1B / Fold change vs veh, LARP1B / RFU, RASA1 / Fold change vs veh, RASA1 / RFU, RB1 / Fold change vs veh, RB1 / RFU, PPFIA1 / Fold change vs veh, PPFIA1 / RFU, MAT2A / Fold change vs veh, MAT2A / RFU, CCT5 / Fold change vs veh, CCT5 / RFU, WDR92 / Fold change vs veh, WDR92 / RFU, CUX1 / Fold change vs veh, CUX1 / RFU, TTC7A / Fold change vs veh, TTC7A / RFU, TMEM135 / Fold change vs veh, TMEM135 / RFU, DEPTOR / Fold change vs veh, DEPTOR / RFU, CPM / Fold change vs veh, CPM / RFU, DNAJB6 / Fold change vs veh, DNAJB6 / RFU, CACNA2D3 / Fold change vs veh, CACNA2D3 / RFU, DTX4 / Fold change vs veh, DTX4 / RFU, TFCP2 / Fold change vs veh, TFCP2 / RFU, GMCL1 /// GMCL1P1 / Fold change vs veh, GMCL1 /// GMCL1P1 / RFU, AEBP2 / Fold change vs veh, AEBP2 / RFU, SNHG1 /// SNORD22 /// SNORD25 /// SNORD26 /// SNORD27 /// SNORD28 /// SNORD29 /// SNORD31 / Fold change vs veh, SNHG1 /// SNORD22 /// SNORD25 /// SNORD26 /// SNORD27 /// SNORD28 /// SNORD29 /// SNORD31 / Fold change (Aza/veh), C12orf56 (ProbeSet 11735607_a_at) / Fold change (ACY-1035/veh), C12orf56 (ProbeSet 11735607_a_at) / Fold change (Aza/veh), FGFR1OP (ProbeSet 11751329_s_at) / Fold change (ACY-1035/veh), FGFR1OP (ProbeSet 11751329_s_at) / Fold change (Aza/veh), VPS36 (ProbeSet 11739960_a_at) / Fold change (ACY-1035/veh), VPS36 (ProbeSet 11739960_a_at) / RFU SYPL1 (11715823_x_at) / Fold change /veh SYPL1 (11715823_x_at) / RFU IGFBP7 (11715501_s_at) / Fold change /veh IGFBP7 (11715501_s_at) / RFU REEP3 (11722064_at) / Fold change /veh REEP3 (11722064_at) / RFU IGLL1 (11728026_x_at) / Fold change /veh IGLL1 (11728026_x_at): dose or concentration left out as unconfirmed
# Settings: ProbeSet 11738335_x_at; LIST B
smiles,measurement,value
Nc1ccc(-c2cccs2)cc1NC(=O)c1ccc2c(c1)cc(C1CC1)n2CCN1CCOCC1 [ACY-1035],"Fold change vs veh, TP53",0.84
